Our source for the mutagenic call and call values is PubChem BioAssay AID1259408 (Genetic Toxicology Data Bank (GENE-TOX), 2018).

In this data set the test system is GENE-TOX genotoxicity assays, various organisms and cells. Nature of the data set: GENE-TOX mutagenicity studies.
Setting [1] is: Species/Cell Type: Nonhuman, Assay Type: Sister-chromatid exchange (SCE) in vitro, Assay Code: SC2+D, Dose Response: With dose response, Evaluation Type: Evaluation B (Post-1980).
[2] abbreviates: Species/Cell Type: Salmonella typhimurium (one or more of the five standard strains: TA98, TA100, TA1535, TA1537, and TA1538), Assay Type: Histidine reverse gene mutation, Ames assay, Assay Code: SALT, Evaluation Type: Evaluation A (Pre-1980).
Where [3] appears, read: Species/Cell Type: Salmonella typhimurium (one or more of the five standard strains: TA98, TA100, TA1535, TA1537, and TA1538), Assay Type: Histidine reverse gene mutation, Ames assay, Assay Code: SAL+*, Activation: With metabolic activation, Evaluation Type: Evaluation A (Pre-1980).
The mark [4] stands for this setting: Species/Cell Type: Salmonella typhimurium (one or more of the five standard strains: TA98, TA100, TA1535, TA1537, and TA1538), Assay Type: Histidine reverse gene mutation, Ames assay, Assay Code: SAL-, Evaluation Type: Evaluation A (Pre-1980).

Molecules are shown by their SMILES. Calls of active or inactive are those of the source. No rule for the calls is given here.

As for `OO`, the mutagenic call (Species/Cell Type: Escherichia coli polA (W3119 vs P3478), Assay Type: Rec-assay, DNA effects (bacterial DNA repair), Assay Code: RE1+, Evaluation Type: Evaluation A (Pre-1980)) was “active; positive”; the mutagenic call (Species/Cell Type: Human diploid fibroblasts, Assay Type: Unscheduled DNA synthesis (UDS) in vitro, DNA effects, Assay Code: UDH+, Evaluation Type: Evaluation A (Pre-1980)) is “active; positive”; the mutagenic call (Species/Cell Type: Human lymphocytes, Assay Type: Sister-chromatid exchange (SCE) in vitro, Assay Code: SCL+D, Dose Response: With dose response, Evaluation Type: Evaluation B (Post-1980)) is “active; positive”; the mutagenic call (Species/Cell Type: Human, Assay Type: Sister-chromatid exchange (SCE) in vitro, Assay Code: SC1+D, Dose Response: With dose response, Evaluation Type: Evaluation B (Post-1980)) is “active; positive”; the mutagenic call (Species/Cell Type: Neurospora crassa, Assay Type: Reverse gene mutation, Assay Code: NER+, Evaluation Type: Evaluation A (Pre-1980)) is “active; positive”; the mutagenic call under setting [1] is “active; positive”. Moreover, the mutagenic call by setting is: under setting [2], “no conclusion”; (Species/Cell Type: Schizosaccharomyces pombe, Assay Type: Reverse gene mutation, Assay Code: YEZ+, Evaluation Type: Evaluation A (Pre-1980)) “active; positive”; (Species/Cell Type: Vicia faba, Assay Type: Chromosome aberrations, Assay Code: VIC-, Evaluation Type: Evaluation A (Pre-1980)) “inactive; negative”.
For `O[C@@H]1[C@H](O)[C@@H](O)c2cc3ccc4cccc5ccc(c2[C@@H]1O)c3c45`, under “Species/Cell Type: Chinese hamster lung (V79) cells, Assay Type: Forward gene mutation at the HPRT or ouabain locus, Assay Code: V79-*, Activation: With metabolic activation, Evaluation Type: Evaluation A (Pre-1980)”, the mutagenic call is “inactive; negative”.
As for `CCCCN(CCCC(=O)O)N=O`, the mutagenic call (Species/Cell Type: Salmonella typhimurium (one or more of the five standard strains: TA98, TA100, TA1535, TA1537, and TA1538), Assay Type: Histidine reverse gene mutation, Ames assay, Assay Code: SAL+/-*, Activation: With metabolic activation, Evaluation Type: Evaluation A (Pre-1980)) is “inactive; positive without activation, negative with activation”.
`C[C@]12CCC[C@H](O1)c1c(cc3c(c1O)C(=O)c1c(O)cc(O)cc1C3=O)O2`: the mutagenic call under setting [2] was “no conclusion”.
Take `CNC(=O)Oc1ccccc1C(C)C`: the mutagenic call is “inactive; negative” (Species/Cell Type: Bacillus subtilis (H17 vs M45T), Assay Type: Rec-assay, spot test, DNA effects (bacterial DNA repair), Assay Code: REX-, Evaluation Type: Evaluation A (Pre-1980)) and “inactive; negative” (Species/Cell Type: Escherichia coli WP2, Assay Type: Tryptophan reverse gene mutation, Assay Code: WP2-, Evaluation Type: Evaluation A (Pre-1980)).
With `O=NN1CCC(c2ccccc2)CC1`, the mutagenic call under setting [3] was “active; positive”.
Consider `C[C@]12C=CC(=O)C=C1CC[C@@H]1[C@@H]2[C@@H](O)C[C@@]2(C)[C@H]1CC[C@]2(O)C(=O)CO`, for which the mutagenic call (Species/Cell Type: Human lymphocytes, Assay Type: Sister-chromatid exchange (SCE) in vivo, Assay Code: SCY+, Evaluation Type: Evaluation B (Post-1980)) was “active; positive” and the mutagenic call (Species/Cell Type: Human, Sex: Male, Assay Type: Sperm morphology, Assay Code: SPH+, Evaluation Type: Evaluation A (Pre-1980)) was “active; positive”.
On to `CCN(Cc1cccc(S(=O)(=O)O)c1)c1ccc(C(=C2C=CC(=[N+](CC)Cc3cccc(S(=O)(=O)O)c3)C=C2)c2ccccc2S(=O)(=O)[O-])cc1`, for which the mutagenic call was “inactive; negative” (Species/Cell Type: Bacillus subtilis (H17 vs M45), Assay Type: Rec-assay, spot test, DNA effects (bacterial DNA repair), Assay Code: REW-, Evaluation Type: Evaluation A (Pre-1980)) and “inactive; negative” under setting [4].
With `Cc1cc2ccccc2c2cc3ccccc3cc12`, the mutagenic call is “active; positive” under setting [1]; “inactive; negative” (Species/Cell Type: Nonhuman, Assay Type: Sister-chromatid exchange (SCE) in vitro, Assay Code: SC2-, Evaluation Type: Evaluation B (Post-1980)); “active; positive” under setting [3].
As to `Cc1cc2nc3ccc(=[N+](C)C)cc-3sc2cc1N`, the mutagenic call is “no conclusion” (Species/Cell Type: Bacillus subtilis (H17 vs M45T), Assay Type: Rec-assay, spot test, DNA effects (bacterial DNA repair), Assay Code: REXT, Evaluation Type: Evaluation A (Pre-1980)) and “no conclusion” (Species/Cell Type: Saccharomyces cerevisiae, Assay Type: Mitotic recombination or gene conversion, Assay Code: YECT, Evaluation Type: Evaluation A (Pre-1980)).
Turning to `O=[N+]([O-])c1ccc2ccc3cc4ccccc4c4ccc1c2c34`, the mutagenic call (Species/Cell Type: Chinese hamster ovary (CHO) cells, Assay Type: Forward gene mutation at the HPRT locus, Assay Code: CHO+*, Activation: With metabolic activation, Evaluation Type: Evaluation B (Post-1980)) is “active; positive”.
In the case of `O=C(COc1ccc(Br)cc1CN1CCCCC1)N/N=C\c1ccccc1`, the mutagenic call (Species/Cell Type: Saccharomyces cerevisiae, Assay Type: Reverse gene mutation, Assay Code: YERT, Evaluation Type: Evaluation A (Pre-1980)) was “no conclusion”.
For `Cc1cc(-c2ccc(N/N=C3/C(=O)c4c(N)cc(S(=O)(=O)O)cc4C=C3S(=O)(=O)O)c(C)c2)ccc1N/N=C1/C(=O)c2c(N)cc(S(=O)(=O)O)cc2C=C1S(=O)(=O)O`, the mutagenic call is “active; positive” (Species/Cell Type: Bacillus subtilis (H17 vs M45), Assay Type: Rec-assay, spot test, DNA effects (bacterial DNA repair), Assay Code: REW+, Evaluation Type: Evaluation A (Pre-1980)) and “inactive; negative” under setting [4]. The call (Species/Cell Type: Nonhuman, Assay Type: In vivo carcinogenicity studies, Assay Code: CCG+, Evaluation Type: Evaluation A (Pre-1980)) was “active; positive”.
As for `Cc1ccc2nc3sc(=O)sc3nc2c1`, the mutagenic call (Species/Cell Type: Saccharomyces cerevisiae, Assay Type: Mitotic recombination or gene conversion, Assay Code: YEC-, Evaluation Type: Evaluation A (Pre-1980)) is “inactive; negative”.
Turning to `O=[N+]([O-])c1ccc(Oc2c(Cl)cc(Cl)cc2Cl)cc1`, for the setting “Species/Cell Type: Mammalian polychromatic erythrocytes, Assay Type: Micronucleus test, chromosome aberrations, Assay Code: MNTT, Evaluation Type: Evaluation A (Pre-1980)”, the mutagenic call is given as “no conclusion”.
Take `CN(C)CCC=C1c2ccccc2C2OC2c2ccccc21` (configuration not stated): the mutagenic call under setting [2] was “no conclusion”.
